# Literature values, collected in patent publication US20070203145A1, “ZOPICLONE RESOLUTION” (priority 2006, published 2007).
# Columns and labels:
# [1] = compared with racemic zopiclone; per U.S. Pat. No. 6,444,673
# [2] = compared with racemic zopiclone; per U.S. Pat. No. 6,444,673; remark: listed apart in the source
compound,measurement,setting,value
"CN1CCN(C(=O)O[C@H]2c3nccnc3C(=O)N2c2ccc(Cl)cn2)CC1 [S-zopiclone, Eszopiclone]",toxicity relative to the racemic mixture,[1],less toxicity
same,activity relative to the racemic mixture,[2],twice the activity of the racemic mixture
